Measured values from ChEMBL document CHEMBL1201862, “PubChem BioAssay data set” (2004).
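Step 1: Grow cells in 96-well plates. Step 2: Expose to compound for 48 hours at 5 concentrations. Step 3: Interpolate endpoints linearly; if unreached, use highest concentration. GI50 is the concentration that inhibits growth by half.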 The source made the active and inactive calls. Cut-off read from the data, not from the text of the source: active = GI50 up to about 1.1 µM and inactive = higher.

Experiments:
Experiment in all cases: NCI tumour cell line growth inhibition, 48 h
[1] = test system: NCI-H226
[2] = test system: EKVX
[3] = test system: SF-295
[4] = test system: UACC-62
[5] = test system: CCRF-CEM
[6] = test system: T47D
[7] = test system: HCT-15
[8] = test system: OVCAR-3
[9] = test system: HCT-116
[10] = test system: SN12C
[11] = test system: SK-MEL-28
[12] = test system: SK-OV-3
[13] = test system: SK-MEL-5
[14] = test system: RXF 393
[15] = test system: OVCAR-8
[16] = test system: HT-29
[17] = test system: M14
[18] = test system: DU-145
[19] = test system: Malme-3M
[20] = test system: MDA-MB-435
[21] = test system: SNB-75
[22] = test system: K562
[23] = test system: U-251
[24] = test system: COLO 205
[25] = test system: ACHN
[26] = test system: RPMI-8226
[27] = test system: SNB-19
[28] = test system: PC-3
[29] = test system: LOX IMVI
[30] = test system: SW-620
[31] = test system: HL-60
[32] = test system: IGROV-1
[33] = test system: SF-268
[34] = test system: A498
[35] = test system: Hs-578T
[36] = test system: HOP-92
[37] = test system: MDA-MB-231
[38] = test system: UACC-257
[39] = test system: HCC 2998
[40] = test system: MOLT-4
[41] = test system: NCI-H23
[42] = test system: SR
[43] = test system: TK-10
[44] = test system: UO-31
[45] = test system: KM12
[46] = test system: NCI-H460
[47] = test system: NCI/ADR-RES
[48] = test system: OVCAR-5
[49] = test system: HOP-62
[50] = test system: OVCAR-4
[51] = test system: MCF7
[52] = test system: SF-539
[53] = test system: CAKI-1
[54] = test system: SK-MEL-2
[55] = test system: A549
[56] = test system: NCI-H522
[57] = test system: 786-0
[58] = test system: MDA-N

In the case of `CCN1CCC(O)(c2ccc(O)cc2)C(C(=O)c2ccc(O)cc2)C1` (stereo not given), the GI50 [1] is reported as 29.3 µM (inactive), the GI50 [2] is reported as 28.2 µM (inactive) and the GI50 [3] is reported as > 100 µM (inactive). The GI50 [4] was 16.4 µM (inactive), the GI50 [5] was 11.5 µM (inactive) and the GI50 [6] was 8.77 µM (inactive). The GI50 [7] was 17.5 µM, the GI50 [8] was 18.2 µM (inactive) and the GI50 [9] was 20.3 µM (inactive). For the same compound, the GI50 [10] was 22.3 µM (inactive), the GI50 [11] was 17 µM (inactive) and the GI50 [12] was > 100 µM (inactive). For the same compound, the GI50 [13] was 10.8 µM (inactive), the GI50 [14] was 16.6 µM (inactive) and the GI50 [15] was 40.6 µM (inactive). The GI50 [16] was 25.8 µM (inactive), the GI50 [17] was 19.5 µM (inactive) and the GI50 [18] was 27.6 µM (inactive). The GI50 [19] was 20.5 µM (inactive), the GI50 [20] was 17.3 µM (inactive) and the GI50 [21] was 11.2 µM (inactive). The GI50 [22] was 12 µM (inactive), the GI50 [23] was > 100 µM (inactive) and the GI50 [24] was 4.45 µM (inactive). The GI50 [25] was 19.8 µM (inactive), the GI50 [26] was 3.21 µM (inactive) and the GI50 [27] was > 100 µM (inactive). The GI50 [28] was > 10 µM (inactive), the GI50 [29] was 12.5 µM (inactive) and the GI50 [30] was 2.95 µM (inactive). For the same compound, the GI50 [31] was 31.7 µM (inactive), the GI50 [32] was 21.6 µM (inactive) and the GI50 [33] was 39.2 µM (inactive). The GI50 [34] was > 10 µM (inactive), the GI50 [35] was 13.3 µM (inactive) and the GI50 [36] was 19.7 µM (inactive). The GI50 [37] was 16.3 µM (inactive), the GI50 [38] was 13.7 µM (inactive) and the GI50 [39] was > 10 µM (inactive). The GI50 [40] was 21.9 µM (inactive), the GI50 [41] was 20.3 µM (inactive) and the GI50 [42] was 16.5 µM (inactive). The GI50 [43] was 17.3 µM (inactive), the GI50 [44] was 21.6 µM (inactive) and the GI50 [45] was 22.2 µM (inactive). The GI50 [46] was > 100 µM (inactive), the GI50 [47] was 26.3 µM (inactive) and the GI50 [48] was 21.1 µM (inactive). For the same compound, the GI50 [49] was > 100 µM (inactive), the GI50 [50] was 27.7 µM (inactive) and the GI50 [51] was 3.18 µM (inactive).
In the case of `Clc1ccc(-c2nn3c(C45CC6CC(CC(C6)C4)C5)nnc3s2)cc1`, the GI50 [1] is reported as > 100 µM (inactive), the GI50 [2] is reported as > 100 µM (inactive) and the GI50 [3] is reported as > 100 µM (inactive). The GI50 [4] was > 100 µM (inactive), the GI50 [5] was > 100 µM (inactive) and the GI50 [6] was > 100 µM (inactive). For the same compound, the GI50 [7] was over 100 µM, the GI50 [8] was 39.1 µM (inactive) and the GI50 [9] was 63.1 µM (inactive). The GI50 [52] was > 100 µM (inactive), the GI50 [10] was > 100 µM (inactive) and the GI50 [11] was > 100 µM (inactive). For the same compound, the GI50 [12] was > 100 µM (inactive), the GI50 [13] was > 100 µM (inactive) and the GI50 [14] was > 100 µM (inactive). The GI50 [53] was > 100 µM (inactive), the GI50 [16] was > 100 µM (inactive) and the GI50 [17] was > 100 µM (inactive). The GI50 [18] was > 100 µM (inactive), the GI50 [54] was > 100 µM (inactive) and the GI50 [19] was > 100 µM (inactive). For the same compound, the GI50 [20] was > 100 µM (inactive), the GI50 [21] was > 100 µM (inactive) and the GI50 [22] was > 100 µM (inactive). For the same compound, the GI50 [23] was > 100 µM (inactive), the GI50 [24] was > 100 µM (inactive) and the GI50 [25] was 69.5 µM (inactive). For the same compound, the GI50 [26] was > 100 µM (inactive), the GI50 [27] was > 100 µM (inactive) and the GI50 [28] was > 100 µM (inactive). For the same compound, the GI50 [29] was > 100 µM (inactive), the GI50 [30] was > 100 µM (inactive) and the GI50 [31] was > 100 µM (inactive). For the same compound, the GI50 [55] was > 100 µM (inactive), the GI50 [32] was > 100 µM (inactive) and the GI50 [33] was > 100 µM (inactive). The GI50 [34] was 50.2 µM (inactive), the GI50 [35] was > 100 µM (inactive) and the GI50 [36] was > 100 µM (inactive). The GI50 [37] was 55.6 µM (inactive), the GI50 [56] was > 100 µM (inactive) and the GI50 [39] was > 100 µM (inactive). The GI50 [57] was 35.7 µM (inactive), the GI50 [40] was > 100 µM (inactive) and the GI50 [41] was > 100 µM (inactive). The GI50 [42] was > 100 µM (inactive), the GI50 [43] was > 100 µM (inactive) and the GI50 [44] was > 100 µM (inactive). For the same compound, the GI50 [45] was > 100 µM (inactive), the GI50 [46] was > 100 µM (inactive) and the GI50 [47] was > 100 µM (inactive). For the same compound, the GI50 [48] was > 100 µM (inactive), the GI50 [49] was > 100 µM (inactive) and the GI50 [50] was 34.4 µM (inactive).
For `CC(C)(Oc1ccc2c(=O)cc(-c3ccccc3)oc2c1)C(=O)N1CCN(c2ccccc2)CC1`, the GI50 [2] was 5.28 µM (inactive), the GI50 [3] was 4.71 µM (inactive) and the GI50 [4] was 3.71 µM (inactive). The GI50 [5] was 3.15 µM (inactive), the GI50 [6] was 3.2 µM (inactive) and the GI50 [7] was 4.55 µM. For the same compound, the GI50 [10] was 5.74 µM (inactive), the GI50 [11] was 6.81 µM (inactive) and the GI50 [12] was > 10 µM (inactive). The GI50 [13] was 4.54 µM (inactive), the GI50 [14] was 1.47 µM (inactive) and the GI50 [15] was 5.57 µM (inactive). The GI50 [53] was 3.7 µM (inactive), the GI50 [16] was 4.08 µM (inactive) and the GI50 [17] was 3.64 µM (inactive). For the same compound, the GI50 [18] was 6.12 µM (inactive), the GI50 [19] was 4.84 µM (inactive) and the GI50 [21] was 4.76 µM (inactive). The GI50 [22] was 3.17 µM (inactive), the GI50 [26] was 2.52 µM (inactive) and the GI50 [28] was 3.05 µM (inactive). For the same compound, the GI50 [29] was 5.5 µM (inactive), the GI50 [30] was 6.64 µM (inactive) and the GI50 [31] was 1.62 µM (inactive). For the same compound, the GI50 [55] was 4.95 µM (inactive), the GI50 [32] was > 10 µM (inactive) and the GI50 [33] was 4.16 µM (inactive). The GI50 [37] was 6.46 µM (inactive), the GI50 [58] was 3.41 µM (inactive) and the GI50 [38] was 3.56 µM (inactive). The GI50 [39] was 5.94 µM (inactive), the GI50 [57] was 5.89 µM (inactive) and the GI50 [40] was 2.6 µM (inactive). For the same compound, the GI50 [41] was 3.24 µM (inactive), the GI50 [42] was 2.49 µM (inactive) and the GI50 [43] was 8.17 µM (inactive). For the same compound, the GI50 [45] was 3.42 µM (inactive), the GI50 [49] was 5.55 µM (inactive) and the GI50 [51] was 3.23 µM (inactive).
`CCC(CCCC[C@@H]1CC[C@H]2CC(=O)C[C@@H]12)OC` (stereo not given in full) was tested, and the GI50 [2] was > 100 µM (inactive), the GI50 [4] was > 100 µM (inactive) and the GI50 [5] was > 100 µM (inactive). For the same compound, the GI50 [6] was > 100 µM (inactive), the GI50 [8] was > 100 µM (inactive) and the GI50 [9] was > 100 µM (inactive). The GI50 [12] was > 100 µM (inactive), the GI50 [13] was 73.5 µM (inactive) and the GI50 [14] was > 100 µM (inactive). The GI50 [15] was > 100 µM (inactive), the GI50 [17] was > 100 µM (inactive) and the GI50 [18] was > 100 µM (inactive). The GI50 [54] was > 100 µM (inactive), the GI50 [22] was 36.7 µM (inactive) and the GI50 [23] was > 100 µM (inactive). For the same compound, the GI50 [24] was > 100 µM (inactive), the GI50 [27] was > 100 µM (inactive) and the GI50 [28] was > 100 µM (inactive). For the same compound, the GI50 [31] was 49.5 µM (inactive), the GI50 [32] was > 100 µM (inactive) and the GI50 [36] was > 100 µM (inactive). For the same compound, the GI50 [37] was > 100 µM (inactive), the GI50 [38] was 56.6 µM (inactive) and the GI50 [57] was > 100 µM (inactive). The GI50 [40] was > 100 µM (inactive), the GI50 [41] was 91.6 µM (inactive) and the GI50 [45] was > 100 µM (inactive). The GI50 [46] was > 100 µM (inactive), the GI50 [47] was 76.6 µM (inactive) and the GI50 [51] was > 100 µM (inactive).
`CC(=O)OCC(=O)[C@@]1(O)CC[C@H]2[C@@H]3CCC4=CC(=O)C=C[C@]4(C)[C@@]3(F)[C@@H](O)C[C@@]21C` [ISOFLUPREDONE ACETATE] was tested, and the GI50 [28] was 65.3 µM (inactive).
